From ChEMBL document CHEMBL3885881, “DrugMatrix”

Species: Rattus norvegicus
Test: DrugMatrix - Regimen: Daily Repeat
Type: toxicity, organism-based, Sprague-Dawley
Parameters: regimen Daily Repeat, gender Male, age 6-8 weeks
Conditions: in vivo, po, route oral GAVAGE, vehicle 100 % WATER; for ABSOLUTE BASOPHIL / ABSOLUTE EOSINOPHIL / ABSOLUTE LYMPHOCYTE / ABSOLUTE MONOCYTE / ABSOLUTE SEGMENTED NEUTROPHIL / BASOPHIL / EOSINOPHIL / ERYTHROCYTE COUNT / HEMATOCRIT / HEMOGLOBIN / LEUKOCYTE COUNT / LYMPHOCYTE / MEAN CORPUSCULAR HEMOGLOBIN / MEAN CORPUSCULAR HEMOGLOBIN CONCENTRATION / MEAN CORPUSCULAR VOLUME / MONOCYTE / NEUTROPHIL / NUCLEATED RED BLOOD CELLS / PLATELET COUNT: tissue Blood; for ALANINE AMINOTRANSFERASE / ALBUMIN / ALKALINE PHOSPHATASE / ASPARTATE AMINOTRANSFERASE / BLOOD UREA NITROGEN / CARBON DIOXIDE / CHLORIDE / CHOLESTEROL / CREATINE PHOSPHOKINASE / CREATININE / GLUCOSE / LACTATE DEHYDROGENASE / LIPASE / PHOSPHORUS / POTASSIUM / SODIUM / TOTAL BILIRUBIN / TOTAL PROTEIN / URIC ACID: tissue Plasma
[1] = 5 mg/kg, 120 h, dose level Low, time 5 day
[2] = 500 mg/kg, 72 h, dose level High, time 3 day
[3] = 500 mg/kg, 120 h, dose level High, time 5 day

COc1cc2nc(N3CCN(C(=O)C4COc5ccccc5O4)CC3)nc(N)c2cc1OC (centres undefined) [DOXAZOSIN]
ABSOLUTE BASOPHIL [1]: 0 CELLS/uL
ABSOLUTE EOSINOPHIL [1]: 0 CELLS/uL
ABSOLUTE LYMPHOCYTE [1]: 9952.67 CELLS/uL
ABSOLUTE MONOCYTE [1]: 136 CELLS/uL
ABSOLUTE SEGMENTED NEUTROPHIL [1]: 844.67 CELLS/uL
BASOPHIL [1]: 0%
EOSINOPHIL [1]: 0%
ERYTHROCYTE COUNT [1]: 5.87 x10E6/uL
HEMATOCRIT [1]: 36.6%
HEMOGLOBIN [1]: 13.9 G/DL
LEUKOCYTE COUNT [1]: 10.93 x10E3/uL
LYMPHOCYTE [1]: 91%
MEAN CORPUSCULAR HEMOGLOBIN [1]: 23.73 pg
MEAN CORPUSCULAR HEMOGLOBIN CONCENTRATION [1]: 37.97 G/DL
MEAN CORPUSCULAR VOLUME [1]: 62.47 fL
MONOCYTE [1]: 1.33%
NEUTROPHIL [1]: 7.67%
NUCLEATED RED BLOOD CELLS [1]: 0 /100WBC
PLATELET COUNT [1]: 1169.67 x10E3/uL
ALANINE AMINOTRANSFERASE [1]: 54.67 u/L
ALBUMIN [1]: 4.07 G/DL
ALKALINE PHOSPHATASE [1]: 345.67 u/L
ASPARTATE AMINOTRANSFERASE [1]: 85.33 u/L
BLOOD UREA NITROGEN [1]: 17.67 mg/dL
CARBON DIOXIDE [1]: 33 mmol/L
CHLORIDE [1]: 101.67 MEQ/L
CHOLESTEROL [1]: 70.33 mg/dL
CREATINE PHOSPHOKINASE [1]: 283.33 u/L
CREATININE [1]: 0.19 mg/dL
GLUCOSE [1]: 123 mg/dL
LACTATE DEHYDROGENASE [1]: 105 u/L
LIPASE [1]: 11.33 u/L
PHOSPHORUS [1]: 11.23 mg/dL
POTASSIUM [1]: 6.38 MEQ/L
SODIUM [1]: 145.93 MEQ/L
TOTAL BILIRUBIN [1]: 0.17 mg/dL
TOTAL PROTEIN [1]: 6.07 G/DL
URIC ACID [1]: 1.13 mg/dL
ABSOLUTE BASOPHIL [2]: 0 CELLS/uL
ABSOLUTE EOSINOPHIL [2]: 73 CELLS/uL
ABSOLUTE LYMPHOCYTE [2]: 6631.33 CELLS/uL
ABSOLUTE MONOCYTE [2]: 53.67 CELLS/uL
ABSOLUTE SEGMENTED NEUTROPHIL [2]: 808.67 CELLS/uL
BASOPHIL [2]: 0%
EOSINOPHIL [2]: 1.33%
ERYTHROCYTE COUNT [2]: 5.62 x10E6/uL
HEMATOCRIT [2]: 34.87%
HEMOGLOBIN [2]: 13.47 G/DL
LEUKOCYTE COUNT [2]: 7.57 x10E3/uL
LYMPHOCYTE [2]: 85.33%
MEAN CORPUSCULAR HEMOGLOBIN [2]: 23.97 pg
MEAN CORPUSCULAR HEMOGLOBIN CONCENTRATION [2]: 38.63 G/DL
MEAN CORPUSCULAR VOLUME [2]: 62.07 fL
MONOCYTE [2]: 1%
NEUTROPHIL [2]: 12.33%
NUCLEATED RED BLOOD CELLS [2]: 0 /100WBC
PLATELET COUNT [2]: 1290.67 x10E3/uL
ALANINE AMINOTRANSFERASE [2]: 66 u/L
ALBUMIN [2]: 4.03 G/DL
ALKALINE PHOSPHATASE [2]: 327 u/L
ASPARTATE AMINOTRANSFERASE [2]: 79 u/L
BLOOD UREA NITROGEN [2]: 14.33 mg/dL
CARBON DIOXIDE [2]: 29.67 mmol/L
CHLORIDE [2]: 100.33 MEQ/L
CHOLESTEROL [2]: 97.33 mg/dL
CREATINE PHOSPHOKINASE [2]: 248 u/L
CREATININE [2]: 0.21 mg/dL
GLUCOSE [2]: 140.67 mg/dL
LACTATE DEHYDROGENASE [2]: 232.33 u/L
LIPASE [2]: 10.33 u/L
PHOSPHORUS [2]: 10.53 mg/dL
POTASSIUM [2]: 5.08 MEQ/L
SODIUM [2]: 143.17 MEQ/L
TOTAL BILIRUBIN [2]: 0.37 mg/dL
TOTAL PROTEIN [2]: 6.17 G/DL
URIC ACID [2]: 0.67 mg/dL
ABSOLUTE BASOPHIL [3]: 0 CELLS/uL
ABSOLUTE EOSINOPHIL [3]: 121 CELLS/uL
ABSOLUTE LYMPHOCYTE [3]: 10491.67 CELLS/uL
ABSOLUTE MONOCYTE [3]: 80.67 CELLS/uL
ABSOLUTE SEGMENTED NEUTROPHIL [3]: 940 CELLS/uL
BASOPHIL [3]: 0%
EOSINOPHIL [3]: 1%
ERYTHROCYTE COUNT [3]: 5.32 x10E6/uL
HEMATOCRIT [3]: 33.53%
HEMOGLOBIN [3]: 13.03 G/DL
LEUKOCYTE COUNT [3]: 11.63 x10E3/uL
LYMPHOCYTE [3]: 90.33%
MEAN CORPUSCULAR HEMOGLOBIN [3]: 24.5 pg
MEAN CORPUSCULAR HEMOGLOBIN CONCENTRATION [3]: 38.93 G/DL
MEAN CORPUSCULAR VOLUME [3]: 62.93 fL
MONOCYTE [3]: 0.67%
NEUTROPHIL [3]: 8%
NUCLEATED RED BLOOD CELLS [3]: 0.33 /100WBC
PLATELET COUNT [3]: 350.67 x10E3/uL
ALANINE AMINOTRANSFERASE [3]: 64 u/L
ALBUMIN [3]: 3.8 G/DL
ALKALINE PHOSPHATASE [3]: 343 u/L
ASPARTATE AMINOTRANSFERASE [3]: 99.33 u/L
BLOOD UREA NITROGEN [3]: 18.33 mg/dL
CARBON DIOXIDE [3]: 30.67 mmol/L
CHLORIDE [3]: 102 MEQ/L
CHOLESTEROL [3]: 54.67 mg/dL
CREATINE PHOSPHOKINASE [3]: 485.67 u/L
CREATININE [3]: 0.29 mg/dL
GLUCOSE [3]: 141.33 mg/dL
LACTATE DEHYDROGENASE [3]: 106.67 u/L
LIPASE [3]: 9.67 u/L
PHOSPHORUS [3]: 10.73 mg/dL
POTASSIUM [3]: 5.43 MEQ/L
SODIUM [3]: 145.97 MEQ/L
TOTAL BILIRUBIN [3]: 0.2 mg/dL
TOTAL PROTEIN [3]: 5.37 G/DL
URIC ACID [3]: 0.83 mg/dL
